# Assay results: patent publication US9526249B2, “Biocidal composition of 2,6-dimethyl-m-dioxane-4-ol acetate and methods of use” (priority 2008, dated 2016)
# Experiments:
# Format in all cases: cell-based
# [1] = test system: Pseudomonas aeruginosa (ATCC#15442), Pseudomonas aeruginosa (ATCC#10145), Enterobacter aerogenes (ATCC#13048), Escherichia coli (ATCC#11229), Klebsiella …; experiment: Preservative efficacy (repeated bacterial challenge) of dimethoxane/BIT in commercial water-based latex paint (pH 7.4), 96-deep well block
# Procedure: (§1) In the following examples, tests are conducted in a 96-deep well block format using a total sample volume of 600 μl for all evaluations. In these samples, no more than 10% of the total volume consists of the biocide and organism solution and all non-matrix additions are normalized for all samples. Each experimental 96-well block contains biocide-treated samples and control samples which lack biocide.
# (§2) Twenty-four hour tryptic soy broth cultures are combined in equal parts for formulation inoculation at a final concentration of 5×10^6 CFU/ml. Organisms are added to each sample of the 96-well block and mixed until homogenous. Additionally, bacterial challenges of the industrial or household product occur on days 2, 7, and 14 of the 28-day test period.
# (§3) Sample aliquots are removed, at predetermined time points, for the enumeration of surviving microorganisms. Numerical values in the data tables listed below represent the log10 viable microorganisms recovered from individual samples at specific time points and biocide concentrations post microorganism addition. Biocide concentrations resulting in a≧4 log10 kill of microorganisms, as compared to the preservative-free control, were deemed a significant reduction of viable organisms and were subsequently used for calculating synergy index values.
# (§4) The reported synergy indexes are measured and calculated using the formula described below. In this approach, a synergy index of 1 indicates additivity. If the index is less than 1, synergy has occurred, while a synergy index greater than 1 indicates antagonism. Synergy index=CA/Ca+CB/Cb Ca=minimal concentration of antimicrobial A, alone, producing a 4 log10 microbial kill Cb=minimal concentration of antimicrobial B, alone, producing a 4 log10 microbial kill
# (§5) CA and CB=the concentrations of antimicrobials A and B, in combination, producing a 4 log10 microbial kill.
# (§6) The antimicrobial profiles of dimethoxane, BIT, and combinations of dimethoxane/BIT are evaluated in a commercial (interior eggshell) water-based latex paint formulation (pH 7.4). The paint formulation is determined to be free of microbial contamination prior to initiation of preservative efficacy evaluations.
# (§7) Organisms for this example: Pseudomonas aeruginosa (ATCC#15442), Pseudomonas aeruginosa (ATCC#10145), Enterobacter aerogenes (ATCC#13048), Escherichia coli (ATCC#11229), Klebsiella pneumoniae (ATCC#8308), Staphylococcus aureus (ATCC#6538), Salmonella choleraesuis (ATCC#10708).
# [2] = test system: Pseudomonas aeruginosa (ATCC#15442), Pseudomonas aeruginosa (ATCC#10145), Enterobacter aerogenes (ATCC#13048), Escherichia coli (ATCC#11229), Klebsiella …; experiment: Preservative efficacy (repeated bacterial challenge) of dimethoxane/BIT in commercial liquid laundry detergent (pH 8.0), 96-deep well block
# Procedure: as §1, §2, §3, §4, §5
# The antimicrobial profiles dimethoxane, 1,2-benzisothiazol-3-one (BIT), and combinations of dimethoxane/BIT are evaluated in a commercial liquid laundry detergent formulation (pH 8.0).
# as §7
# [3] = test system: Pseudomonas aeruginosa (ATCC#15442), Pseudomonas aeruginosa (ATCC#10145), Enterobacter gergoviae (ATCC#33028), Escherichia coli (ATCC#11229), Pseudomonas …; experiment: Preservative efficacy (repeated bacterial challenge) of dimethoxane/MIT in commercial liquid laundry detergent (pH 8.0), 96-deep well block; settings: day 20
# Procedure: as §1, §2, §3, §4, §5
# The antimicrobial profiles of 2,6-dimethyl-m-dioxan-4-ol acetate (dimethoxane), 2-methyl-3-isothiazolinone (MIT), and combinations of dimethoxane/MIT are evaluated in a commercial liquid laundry detergent formulation (pH 8.0). The detergent formulation is determined to be free of microbial contamination prior to initiation of preservative efficacy evaluations.
# Organisms for this example: Pseudomonas aeruginosa (ATCC#15442), Pseudomonas aeruginosa (ATCC#10145), Enterobacter gergoviae (ATCC#33028), Escherichia coli (ATCC#11229), Pseudomonas putida (ATCC#49128), Staphylococcus aureus (ATCC#6538).
# [4] = test system: wild strain of green algae isolated from contaminated PVA latex; experiment: Challenge testing of PVA latex against wild strain of green algae; settings: Dimethoxane 2000 ppm alone (CMIT/MIT 0 ppm), three weeks
# Procedure: Procedure. In this example, a viscous PVA (poly vinyl acetate) latex diluted with water at 5 to 1 ratio is used for algal efficacy testing. Each sample is mixed well by hand and vortex for 2 minutes. 5mL portions of each sample are then placed in a six-well plate and inoculated with 500 μL of 1×10^6 cfu/mL wild strain of green algae isolated from contaminated PVA latex.
# The plates are incubated at room temp (25° C.-26° C.) under cyclic exposure to light (OTT-Lite model #OTL4012P, 40 Watt, 26 KLumen) and dark phases, for a period of three weeks.
# [5] = test system: Pseudomonas aeruginosa (ATCC#15442), Pseudomonas aeruginosa (ATCC#10145), Enterobacter aerogenes (ATCC#13048), Escherichia coli (ATCC#11229), Klebsiella …; experiment: Preservative efficacy (repeated bacterial challenge) of dimethoxane/CMIT/MIT in commercial water-based latex paint (pH 7.4), 96-deep well block
# Procedure: as §1, §2, §3, §4, §5
# as §6, with “2,6-dimethyl-m-dioxan-4-ol acetate (dimethoxane), 5-chloro-2-methyl-4-isothiazolin-3-one/2-methyl-4-isothiazolin-3-one (CMIT/MIT)” for “dimethoxane, BIT,”, “dimethoxane/CMIT/MIT” for “dimethoxane/BIT”
# as §7
# [6] = day 20, ppm active, following four bacterial challenges
smiles,measurement,setting,value
"O=c1[nH]sc2ccccc12 [BIT, 1,2-benzisothiazol-3-one]",log10 viable microorganisms (score),"[1]; BIT alone 29 ppm, day 15",8 log10
same,log10 viable microorganisms (score),"[1]; BIT alone 44 ppm, day 15",7 log10
same,log10 viable microorganisms (score),"[1]; BIT alone 66 ppm, day 15",6 log10
same,log10 viable microorganisms (score),"[1]; BIT alone 99 ppm, day 15",7 log10
same,log10 viable microorganisms (score),"[1]; BIT alone 148 ppm, day 15",7 log10
same,log10 viable microorganisms (score),"[1]; BIT alone 222 ppm, day 15",8 log10
same,log10 viable microorganisms (score),"[1]; BIT alone 333 ppm, day 15",8 log10
same,log10 viable microorganisms (score),"[1]; BIT alone 500 ppm, day 15",5 log10
same,log10 viable microorganisms (score),"[2]; BIT alone 18 ppm, day 20",6.0 log10
same,log10 viable microorganisms (score),"[2]; BIT alone 26 ppm, day 20",7.0 log10
same,log10 viable microorganisms (score),"[2]; BIT alone 40 ppm, day 20",3.0 log10
same,log10 viable microorganisms (score),"[2]; BIT alone 59 ppm, day 20",0.0 log10
same,log10 viable microorganisms (score),"[2]; BIT alone 89 ppm, day 20",0.0 log10
same,log10 viable microorganisms (score),"[2]; BIT alone 133 ppm, day 20",0.0 log10
same,log10 viable microorganisms (score),"[2]; BIT alone 200 ppm, day 20",1.0 log10
same,log10 viable microorganisms (score),"[2]; BIT alone 300 ppm, day 20",1.0 log10
same,BIT alone (minimal concentration producing a 4 log10 microbial kill),[2]; [6],59 ppm
"Cn1ccc(=O)s1 [MIT, 2-Methyl-3-isothiazolinone]",log10 viable microorganisms (score),[3]; MIT alone 3 ppm,8.0 log10
same,log10 viable microorganisms (score),[3]; MIT alone 4 ppm,8.0 log10
same,log10 viable microorganisms (score),[3]; MIT alone 7 ppm,8.0 log10
same,log10 viable microorganisms (score),[3]; MIT alone 10 ppm,8.0 log10
same,log10 viable microorganisms (score),[3]; MIT alone 15 ppm,8.0 log10
same,log10 viable microorganisms (score),[3]; MIT alone 22 ppm,8.0 log10
same,log10 viable microorganisms (score),[3]; MIT alone 33 ppm,8.0 log10
same,log10 viable microorganisms (score),[3]; MIT alone 50 ppm,3.0 log10
same,MIT Alone (minimal concentration producing a 4 log10 microbial kill),[3],>50 ppm
"CC(=O)OC1CC(C)OC(C)O1 (stereo not shown) [DMX, 2,6-dimethyl-m-dioxane-4-ol acetate]",% algal growth Sample A,[4],15%
same,% algal growth Sample B,[4],15%
same,log10 viable microorganisms,"[5]; 480 h, 1740 ppm",2 log10
same,log10 viable microorganisms,"[5]; DMX alone 102 ppm a.i., day 20",8 log10
same,log10 viable microorganisms,"[5]; DMX alone 153 ppm a.i., day 20",8 log10
same,log10 viable microorganisms,"[5]; DMX alone 229 ppm a.i., day 20",7 log10
same,log10 viable microorganisms,"[5]; DMX alone 344 ppm a.i., day 20",7 log10
same,log10 viable microorganisms,"[5]; DMX alone 516 ppm a.i., day 20",8 log10
same,log10 viable microorganisms,"[5]; DMX alone 773 ppm a.i., day 20",8 log10
same,log10 viable microorganisms,"[5]; DMX alone 1160 ppm a.i., day 20",6 log10
same,DMX alone (minimal concentration producing a 4 log10 microbial kill),[5]; [6],1740 ppm
same,log10 viable microorganisms,"[1]; 360 h, 1160 ppm",3 log10
same,log10 viable microorganisms,"[1]; DMX alone 102 ppm a.i., day 15",7 log10
same,log10 viable microorganisms,"[1]; DMX alone 153 ppm a.i., day 15",8 log10
same,log10 viable microorganisms,"[1]; DMX alone 229 ppm a.i., day 15",7 log10
same,log10 viable microorganisms,"[1]; DMX alone 344 ppm a.i., day 15",7 log10
same,log10 viable microorganisms,"[1]; DMX alone 516 ppm a.i., day 15",8 log10
same,log10 viable microorganisms,"[1]; DMX alone 773 ppm a.i., day 15",7 log10
same,log10 viable microorganisms,"[1]; DMX alone 1740 ppm a.i., day 15",0 log10
same,DMX alone (minimal concentration producing a 4 log10 microbial kill),"[1]; day 15, ppm active, following four bacterial challenges",1160 ppm
same,log10 viable microorganisms,[3]; DMX alone 77 ppm,8.0 log10
same,log10 viable microorganisms,[3]; DMX alone 115 ppm,8.0 log10
same,log10 viable microorganisms,[3]; DMX alone 172 ppm,8.0 log10
same,log10 viable microorganisms,[3]; DMX alone 257 ppm,5.0 log10
same,log10 viable microorganisms,[3]; DMX alone 386 ppm,4.0 log10
same,log10 viable microorganisms,[3]; DMX alone 580 ppm,3.0 log10
same,log10 viable microorganisms,[3]; DMX alone 870 ppm,1.0 log10
same,log10 viable microorganisms,[3]; DMX alone 1305 ppm,0.0 log10
same,DMX alone (minimal concentration producing a 4 log10 microbial kill),[3],870
same,log10 viable microorganisms,"[2]; 480 h, 1160 ppm",0.0 log10
same,log10 viable microorganisms,"[2]; DMX alone 102 ppm a.i., day 20",6.0 log10
same,log10 viable microorganisms,"[2]; DMX alone 153 ppm a.i., day 20",6.0 log10
same,log10 viable microorganisms,"[2]; DMX alone 229 ppm a.i., day 20",6.0 log10
same,log10 viable microorganisms,"[2]; DMX alone 344 ppm a.i., day 20",6.0 log10
same,log10 viable microorganisms,"[2]; DMX alone 516 ppm a.i., day 20",6.0 log10
same,log10 viable microorganisms,"[2]; DMX alone 773 ppm a.i., day 20",4.0 log10
same,log10 viable microorganisms,"[2]; DMX alone 1740 ppm a.i., day 20",0.0 log10
same,DMX alone (minimal concentration producing a 4 log10 microbial kill),[2]; [6],1160 ppm
